Values quoted from earlier work, collected in patent US20110105330A1, “C[…]” (priority 2009, published 2011).

Details: ph 1.9, 20° C.

For `O=C(O)CNCP(=O)(O)O` [Glyphosate, n-(phosphonomethyl) glycine], the solubility in water is listed as “approximately 10.5 g/L”.
